One assay concerns Colletotrichum gossypii. The assay is described as follows: Fungal growth inhibition, treated disc on agar (COL GOS). It counts as cell-based. The conditions noted are these: disc dipped in 500 mg/l, 29° C.; for inhibition at 500 µg/mL: Colletotrichum gossypii, read-out: Percent Growth Inhibition, COL GOS.
The next assay deals with Scierotinia minor. As to the kind of experiment: Fungal growth inhibition, treated disc on agar (SCL MIN). The following applies: disc dipped in 500 mg/l, 29° C.; for inhibition at 500 µg/mL: read-out: Percent Growth Inhibition, SCL MIN. Type of assay: cell-based.
Another assay concerns Botrytis cinerea. As to the kind of experiment: Fungal growth inhibition, treated disc on agar (BOT CIN). Type of assay: cell-based. The following applies: disc dipped in 500 mg/l, 29° C.; for inhibition at 500 µg/mL: Botrytis cinerea, read-out: Percent Growth Inhibition, BOT CIN.
The subject of another assay is Erysiphe polygoni. The assay is described as follows: Powdery mildew on pinto bean, foliar application (ERY POL). The following applies: similar procedure as barley (1,000 mg/l); for pest or weed control at 1000 µg/mL: Erysiphe polygoni, read-out: Percent Reduction of Disease, ERY POL. It counts as in vivo. The gist of the method: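 Pinto bean plants sprayed with compound emulsion (acetone or inert solvent, TWEEN 20, water) at 1,000 mg/l, or left unsprayed, dried, then inoculated with Erysiphe polygoni spores in a 21° C greenhouse. Disease scored; percent control computed against untreated controls.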

Another assay relates to Uromyces phaseoli. The assay is described as follows: Bean rust fungus eradicant test (URO PHA). Type of assay: in vivo. The following applies: pinto bean, eradicant spray 2 days after inoculation, 1,000 mg/l; for pest or weed control at 1000 µg/mL: Uromyces phaseoli, 216 h, read-out: Percent Reduction of Disease, URO PHA. The gist of the method:
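Seven-day-old pinto bean plants (Phaseolus vulgaris, primary leaf) were inoculated with 20,000 spores/ml, held 24 h at 99% humidity and 21° C., then sprayed two days post-inoculation with acetone/TWEEN 20 emulsions at 1,000 mg/l. After nine days in a 21° C. greenhouse, disease was scored as percent reduction versus unsprayed controls.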

For a further assay, the system named is Pythium ultimum. As to the kind of experiment: Fungal growth inhibition, treated disc on agar (PYT ULT). Type of assay: cell-based. The following applies: disc dipped in 500 mg/l, 29° C.; for inhibition at 500 µg/mL: Globisporangium ultimum, read-out: Percent Growth Inhibition, PYT ULT.

Excerpt for Botrytis cinerea: (§1) Filter paper discs, each 11 mm. in diameter, were dipped in each of the test solutions. The discs were allowed to air dry to drive off the acetone solvent. A number of untreated discs were used as controls.
(§2) The treated and untreated discs were then placed on agar plates and one of the following fungus species: Septoria nodorum (SEP NOD), Botrytis cinerea (BOT CIN), Fusarium oxysporum (FUS OXY), Pythium ultimum (PYT ULT), Rhizoctonia solani (RHI SOL), Colletotrichum gossypii (COL GOS), and Scierotinia minor (SCL MIN), was added to the center of each disc in the form of a culture plug with the fungus mat in contact with the paper of the test disc. Cercosporidium personatum (CER PER), was added to discs as a spore suspension (20,000 spores/ml) to the disc (two drops of spore suspension per disc), rather than a mycelial culture plug. The plates were then incubated at 29° C. in an oven.
(§3) With the exception of the discs containing Cercosporidium personatum, the discs were evaluated by first measuring the radius from the center of the fungus colony on the treated discs and on the untreated discs. Percent growth inhibition of each of the compounds tested was determined as a function of the difference between the radius of the fungus colony on the treated disc versus the radius of the fungus colony on the untreated disc.
Excerpt for Colletotrichum gossypii: as §1, §2, §3
Excerpt for Pythium ultimum: as §1, §2, §3
Excerpt for Scierotinia minor: as §1, §2, §3

Usually inhibition stands for the share of the control response that was lost under treatment. `CCCCCCC(C#N)(CCc1ccc(OCC)cc1)c1cccnc1` (stereo not drawn) [Compound 44]: the inhibition at 500 µg/mL in the assay with Colletotrichum gossypii was determined as 100%; in the assay on Scierotinia minor it was 100%; in the assay with Botrytis cinerea, 43%; in the assay on Pythium ultimum, 89%. Also, the pest or weed control at 1000 µg/mL in the assay on Erysiphe polygoni amounted to 90%; in the assay with Uromyces phaseoli, 92%.
`CCCCCCC(C#N)(CCc1ccc(F)cc1)c1cccnc1` (stereo not drawn) [Compound 45]: the inhibition at 500 µg/mL with Colletotrichum gossypii was found to be 100%; in the assay on Scierotinia minor it was 100%; in the assay on Botrytis cinerea, 100%; with Pythium ultimum, 89%. Also, the results for the pest or weed control at 1000 µg/mL in the assay on Erysiphe polygoni and with Uromyces phaseoli were 90% and 92%, respectively.
Consider `CCCC(C#N)(CCc1ccc(OCC)cc1)c1cccnc1` (stereo not drawn) [Compound 46], for which the inhibition at 500 µg/mL in the assay with Colletotrichum gossypii was 100%; in the assay with Scierotinia minor, 100%; with Botrytis cinerea, 100%; with Pythium ultimum, 59%. Also, the pest or weed control at 1000 µg/mL turned out to be 90% with Erysiphe polygoni and 33% in the assay on Uromyces phaseoli.
In the case of `CC(C)=CCC(C#N)(CCc1ccc(F)cc1)c1cccnc1` (stereo not drawn) [Compound 47], the inhibition at 500 µg/mL with Colletotrichum gossypii, with Scierotinia minor, in the assay with Botrytis cinerea and in the assay on Pythium ultimum was 100% throughout. Moreover, the pest or weed control at 1000 µg/mL with Erysiphe polygoni is 90%; in the assay on Uromyces phaseoli, 33%.
Consider `COc1ccc(CCC(C#N)(CC=C(C)C)c2cccnc2)cc1` (stereo not drawn) [Compound 48], for which the inhibition at 500 µg/mL with Colletotrichum gossypii was found to be 100%; in the assay on Scierotinia minor, 100%; with Botrytis cinerea it was 100%; in the assay on Pythium ultimum, 53%. The pest or weed control at 1000 µg/mL is 90% with Erysiphe polygoni and 83% in the assay with Uromyces phaseoli.
Regarding `CC(C)CCC(C#N)(CCc1ccc(F)cc1)c1cccnc1` (stereo not drawn) [Compound 49], the “Percent Growth Inhibition, COL GOS” value with Colletotrichum gossypii is listed as 100%. In addition, the “Percent Growth Inhibition, SCL MIN” value with Scierotinia minor is recorded as 100%. Further, the “Percent Growth Inhibition, BOT CIN” value in the assay on Botrytis cinerea is listed as 100%. Further, the pest or weed control at 1000 µg/mL in the assay with Erysiphe polygoni worked out at 90%. The “Percent Reduction of Disease, URO PHA” value with Uromyces phaseoli turned out to be 83%. Further, the “Percent Growth Inhibition, PYT ULT” value in the assay with Pythium ultimum worked out at 76%.
For `COCC(C#N)(CCc1ccc(OC)cc1)c1cccnc1` (stereo not drawn) [Compound 50], the inhibition at 500 µg/mL in the assay on Colletotrichum gossypii stood at 100%; in the assay on Scierotinia minor, 100%; in the assay with Botrytis cinerea it was 0%; in the assay with Pythium ultimum it was 10%. Further, the pest or weed control at 1000 µg/mL with Erysiphe polygoni was 100%; in the assay with Uromyces phaseoli it was 90%.
On to `COCC(C#N)(CCc1ccc(F)cc1)c1cccnc1` (stereo not drawn) [Compound 51], for which the inhibition at 500 µg/mL amounted to 100% in the assay on Colletotrichum gossypii, 100% in the assay on Scierotinia minor, 100% in the assay on Botrytis cinerea and 0% in the assay on Pythium ultimum. Besides, the results for the pest or weed control at 1000 µg/mL with Erysiphe polygoni and in the assay with Uromyces phaseoli were 85% and 20%, respectively.
With `N#CC(CCc1ccc(F)cc1)(CC(F)(F)F)c1cccnc1` (stereo not drawn) [Compound 52], the inhibition at 500 µg/mL in the assay with Colletotrichum gossypii came out at 100%; with Scierotinia minor, 100%; in the assay on Botrytis cinerea it was 100%; in the assay with Pythium ultimum, 0%. For the same molecule, the pest or weed control at 1000 µg/mL in the assay on Erysiphe polygoni turned out to be 100%; with Uromyces phaseoli it was 70%.
Turning to `N#CC(CCF)(CCc1ccc(F)cc1)c1cccnc1` (stereo not drawn) [Compound 53], the inhibition at 500 µg/mL with Colletotrichum gossypii was 100%; with Scierotinia minor, 100%; in the assay with Botrytis cinerea, 100%; in the assay with Pythium ultimum it was 5%. Besides, the pest or weed control at 1000 µg/mL with Erysiphe polygoni worked out at 90%; in the assay on Uromyces phaseoli, 0%.
Regarding `CCCCOc1ccc(CCC(C#N)(CCCC)c2cccnc2)cc1` (stereo not drawn) [Compound 54], the inhibition at 500 µg/mL with Colletotrichum gossypii was determined as 100%; in the assay with Scierotinia minor, 100%; in the assay with Botrytis cinerea, 100%; in the assay with Pythium ultimum it was 5%. The pest or weed control at 1000 µg/mL came to 90% in the assay with Erysiphe polygoni and 35% in the assay on Uromyces phaseoli.
Regarding `CC(C)CCC(C#N)(CCc1ccc(F)cc1)c1cccnc1` (stereo not drawn) [Compound 55], the “Percent Growth Inhibition, COL GOS” value with Colletotrichum gossypii was found to be 30%. Also, the “Percent Growth Inhibition, SCL MIN” value in the assay with Scierotinia minor turned out to be 55%. The “Percent Growth Inhibition, BOT CIN” value in the assay with Botrytis cinerea amounted to 40%. In the assay on Erysiphe polygoni, the “Percent Reduction of Disease, ERY POL” value came out at 85%. In the assay on Uromyces phaseoli, the “Percent Reduction of Disease, URO PHA” value came out at 0%. In the assay with Pythium ultimum, the “Percent Growth Inhibition, PYT ULT” value came to 20%.
Regarding `C=CCC(C#N)(CCc1ccc(OCCCC)cc1)c1cccnc1` (stereo not drawn) [Compound 56], the inhibition at 500 µg/mL was determined as 35% in the assay on Colletotrichum gossypii, 45% in the assay with Scierotinia minor, 100% in the assay on Botrytis cinerea and 5% in the assay with Pythium ultimum. The pest or weed control at 1000 µg/mL in the assay with Erysiphe polygoni amounted to 90%; in the assay with Uromyces phaseoli it was 0%.
Consider `CCCCOc1ccc(CCC(C#N)(CCC)c2cccnc2)cc1` (stereo not drawn) [Compound 57], for which the inhibition at 500 µg/mL with Colletotrichum gossypii is 15%; in the assay with Scierotinia minor, 65%; in the assay on Botrytis cinerea it was 30%; with Pythium ultimum it was 5%. Moreover, the pest or weed control at 1000 µg/mL with Erysiphe polygoni was 90%; in the assay with Uromyces phaseoli it was 0%.
`CCCCOc1ccc(CCC(C#N)(CC(C)C)c2cccnc2)cc1` (stereo not drawn) [Compound 58]: the inhibition at 500 µg/mL came to 15% with Colletotrichum gossypii, 75% in the assay with Scierotinia minor, 10% with Botrytis cinerea and 0% in the assay on Pythium ultimum. The pest or weed control at 1000 µg/mL with Erysiphe polygoni came out at 85%; in the assay with Uromyces phaseoli, 0%.
Take `CC=CCC(C#N)(CCc1ccc(F)cc1)c1cccnc1` (stereo not drawn) [Compound 59]: the inhibition at 500 µg/mL in the assay on Colletotrichum gossypii turned out to be 100%; with Scierotinia minor, 70%; in the assay with Botrytis cinerea, 100%; with Pythium ultimum, 5%. In addition, the pest or weed control at 1000 µg/mL with Erysiphe polygoni was 90%; with Uromyces phaseoli it was 35%.
In the case of `CCCCCC(C#N)(CCc1ccc(F)cc1)c1cccnc1` (stereo not drawn) [Compound 60], the inhibition at 500 µg/mL in the assay with Colletotrichum gossypii came out at 30%; in the assay on Scierotinia minor, 100%; with Botrytis cinerea, 100%; in the assay on Pythium ultimum it was 50%. In addition, the pest or weed control at 1000 µg/mL in the assay with Erysiphe polygoni is 90%; in the assay with Uromyces phaseoli, 50%.
For the molecule `C#CCC(CCc1ccccc1)(C(N)=S)c1cccnc1` (stereo not drawn) [Compound 61, α-(2-phenylethyl)-α-(2-propynyl)-3-pyridinethanethioamide], the inhibition at 500 µg/mL with Colletotrichum gossypii, with Scierotinia minor, in the assay on Botrytis cinerea and with Pythium ultimum was 100% each time. Also, the pest or weed control at 1000 µg/mL with Erysiphe polygoni turned out to be 100%; in the assay with Uromyces phaseoli it was 0%.
Consider `CCCCCC(CCc1ccc(F)cc1)(C(N)=O)c1cccnc1` (stereo not drawn) [Compound 62], for which the inhibition at 500 µg/mL with Colletotrichum gossypii is 25%; with Scierotinia minor, 100%; with Botrytis cinerea it was 0%; in the assay on Pythium ultimum, 5%. Moreover, the pest or weed control at 1000 µg/mL with Erysiphe polygoni came to 100%; in the assay with Uromyces phaseoli, 35%.
As for `CCCCC(C#N)(CCCc1ccccc1OC)c1cccnc1` (stereo not drawn) [Compound 63], the inhibition at 500 µg/mL in the assay on Colletotrichum gossypii stood at 25%; with Scierotinia minor, 100%; in the assay on Botrytis cinerea it was 40%; in the assay with Pythium ultimum, 10%. Moreover, the pest or weed control at 1000 µg/mL was found to be 100% in the assay on Erysiphe polygoni and 0% in the assay with Uromyces phaseoli.
As for `N#CC(CCCF)(CCc1ccc(F)cc1)c1cccnc1` (stereo not drawn) [Compound 64], the inhibition at 500 µg/mL was 55% in the assay with Colletotrichum gossypii, 50% in the assay on Scierotinia minor, 100% in the assay on Botrytis cinerea and 0% with Pythium ultimum. Besides, the pest or weed control at 1000 µg/mL turned out to be 100% in the assay on Erysiphe polygoni and 70% with Uromyces phaseoli.
As to `C=C(Cl)CC(C#N)(CCc1ccc(F)cc1)c1cccnc1` (stereo not drawn) [Compound 65], the inhibition at 500 µg/mL in the assay on Colletotrichum gossypii, in the assay with Scierotinia minor, with Botrytis cinerea and with Pythium ultimum was 100% throughout. Also, the pest or weed control at 1000 µg/mL turned out to be 100% in the assay on Erysiphe polygoni and 50% in the assay with Uromyces phaseoli.
Turning to `N#CC(CCCF)(CCc1ccccc1F)c1cccnc1` (stereo not drawn) [Compound 66], the inhibition at 500 µg/mL with Colletotrichum gossypii is 100%; with Scierotinia minor, 100%; in the assay on Botrytis cinerea it was 100%; with Pythium ultimum, 0%. The pest or weed control at 1000 µg/mL in the assay on Erysiphe polygoni was 100%; with Uromyces phaseoli, 70%.
On to `C=CCC(C#N)(CCc1ccccc1F)c1cccnc1` (stereo not drawn) [Compound 67], for which the inhibition at 500 µg/mL in the assay on Colletotrichum gossypii was 100%; with Scierotinia minor, 100%; in the assay with Botrytis cinerea, 100%; with Pythium ultimum, 20%. In addition, the pest or weed control at 1000 µg/mL came to 100% in the assay with Erysiphe polygoni and 50% in the assay with Uromyces phaseoli.

Values taken from US5945436A, “Pyridylmethyl nitriles, amides and thioamides useful as fungicides” (Uniroyal Chemical Company, Inc., priority 1997, dated 1999).
